How the values were obtained:
Assay in all cases: isoTOP-ABPP after in situ treatment of 231MFP cells
Type in all cases: binding
Conditions in all cases: 100 μM, 4 h in 231MFP cells in situ
SCP2 C307 = target: T1, SCP2 C307 (Homo sapiens, UniProt P22307)
T1 construct: IsoTOP-ABPP analysis of DKM 2-90 treatment in 231MFP cells in situ; endogenous in cells; host or cells: 231MFP cells
T1 sequence (P22307 1-547): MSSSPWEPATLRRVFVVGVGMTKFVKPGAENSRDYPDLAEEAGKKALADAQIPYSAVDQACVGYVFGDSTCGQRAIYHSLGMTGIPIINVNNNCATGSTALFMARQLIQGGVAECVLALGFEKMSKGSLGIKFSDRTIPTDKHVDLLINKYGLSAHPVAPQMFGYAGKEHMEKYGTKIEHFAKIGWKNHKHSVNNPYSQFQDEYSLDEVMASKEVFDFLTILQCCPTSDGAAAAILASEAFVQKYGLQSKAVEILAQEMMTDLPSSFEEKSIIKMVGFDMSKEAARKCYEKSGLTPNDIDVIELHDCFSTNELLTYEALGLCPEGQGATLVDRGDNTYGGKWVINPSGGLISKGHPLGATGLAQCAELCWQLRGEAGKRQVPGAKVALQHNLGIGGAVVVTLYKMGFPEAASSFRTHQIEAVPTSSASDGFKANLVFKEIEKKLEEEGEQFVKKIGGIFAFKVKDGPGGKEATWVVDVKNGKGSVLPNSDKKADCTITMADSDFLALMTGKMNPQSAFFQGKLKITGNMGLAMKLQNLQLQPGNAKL
Description: (§1) IsoTOP-ABPP studies were performed using the methods described in “Nature 534(7608), 570-574 (2016)” by Backus K. M., et al. and “Nature 468(7325), 790-795 (2010)” by Weerapana E., et al. […] Then, IAyne (iodoacetamide-alkyne) labeling was performed for 1 hour at room temperature. CuAAC was used by sequential addition of tris(2-carboxyethyl)phosphine (1 mM), tris[(1-benzyl-1H-1,2,3-triazol-4-yl)methyl]amine (34 μM), copper (II) sulfate (1 mM), and biotin-linker-azide where the linker was functionalized with a TEV protease recognition sequence along with an isotopically light or heavy valine for treatment of control or treated proteome, respectively. After click reactions, proteomes were precipitated by centrifugation at 6500×g, washed in ice-cold methanol, combined in a 1:1 control/treated ratio, washed again, then denatured and re-solubilized by heating in 1.2% SDS/PBS to 80° C. for 5 minutes. Insoluble components were precipitated by centrifugation at 6500×g and soluble proteome was diluted in 0.2% SDS/PBS (5 ml). Labeled proteins were bound to avidin-agarose beads (170 μl re-suspended beads/sample) while rotating overnight at 4° C. Bead-linked proteins were enriched by washing three times each in PBS and water, then re-suspended in urea/PBS (6 M), reduced in TCEP (1 mM), alkylated with iodoacetamide (18 mM), then washed and re-suspended in urea/PBS (2 M), and finally trypsinized overnight with 0.5 μg/μl sequencing grade trypsin. Tryptic peptides were eluted off. Beads were washed in PBS (3 times) and water (3 times), washed in TEV buffer solution (water, TEV buffer, 100 μM dithiothreitol), and re-suspended in buffer with Ac-TEV protease and then incubated overnight. Peptides were diluted in water, acidified with formic acid (1.2 M), and prepared for analysis.
(§2) Peptides from all proteomic experiments were pressure-loaded onto an Agilent 600 series RP-HPLC system equipped with a capillary tubing (250 mm) packed with Aqua C18 reverse-phase resin (4 cm). The system was previously equilibrated with a gradient (0% B to 100% B over 10 minutes, 100% B for 5 minutes, then 0% B for 5 minutes; buffer A: 95:5 water:acetonitrile, 0.1% formic acid; buffer B: 80:20 acetonitrile:water, 0.1% formic acid). The samples were then attached using a MicroTee PEEK 360 μm fitting to a laser pulled column (13 cm) packed with Aqua C18 reverse-phase resin (10 cm) and strong-cation exchange resin (3 cm) for isoTOP-ABPP studies. Samples were analyzed using an Q Exactive Plus mass spectrometer using a 5-step Multidimensional Protein Identification Technology (MudPIT) program. The system was run using a gradient (5% B to 55% B; buffer A: 95:5 water:acetonitrile, 0.1% formic acid; buffer B: 80:20 acetonitrile:water, 0.1% formic acid), along with a salt bump feeding aqueous ammonium acetate (500 mM) at an increment of 0%, 25%, 50%, 80%, to 100%. Data was collected in data-dependent acquisition mode with dynamic exclusion enabled (60 sec). One full MS scan (400-1800 m/z) (MS1 scan) was conducted, followed by MS2 scan (ITMS) (15 times) of the most abundant ions. Heated capillary temperature was set to 200° C. and the nanospray voltage was set to 2.75 kV.
(§3) Data was extracted in the form of MS1 and MS2 files using Raw Extractor 1.9.9.2 and searched against the Uniprot […] database using ProLuCID search methodology in IP2 v.3, described in “J Proteomics 129:16-24 (2015)” by Xu T, et al. Cysteine residues were searched with a static modification for carboxyaminomethylation (+m/z 57.02146), up to two differential modifications for methionine oxidation, and either the light or heavy TEV tags (+m/z 464.28596 or +m/z 470.29977, respectively). Peptides were required to have at least one tryptic end and to contain the TEV modification. ProLUCID data was filtered through DTASelect to achieve a peptide false-positive rate below 1%. […]

CLIC4 C35 = target: T2, CLIC4 C35 (Homo sapiens, UniProt Q9Y696)
T2 construct: IsoTOP-ABPP analysis of DKM 2-90 treatment in 231MFP cells in situ; endogenous in cells; host or cells: 231MFP cells
T2 sequence (Q9Y696 whole entry): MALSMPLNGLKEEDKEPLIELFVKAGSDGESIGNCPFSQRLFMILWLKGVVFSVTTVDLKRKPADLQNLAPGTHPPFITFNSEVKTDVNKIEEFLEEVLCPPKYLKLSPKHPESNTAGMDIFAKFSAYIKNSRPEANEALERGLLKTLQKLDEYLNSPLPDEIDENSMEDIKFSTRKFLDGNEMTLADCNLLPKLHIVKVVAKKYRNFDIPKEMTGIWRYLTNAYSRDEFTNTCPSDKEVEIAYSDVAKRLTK
Description: as §1, §2, §3

TXNDC17 C43 = target: T3, TXNDC17 C43 (Homo sapiens, UniProt Q9BRA2)
T3 construct: IsoTOP-ABPP analysis of DKM 2-90 treatment in 231MFP cells in situ; endogenous in cells; host or cells: 231MFP cells
T3 sequence (Q9BRA2 1-123): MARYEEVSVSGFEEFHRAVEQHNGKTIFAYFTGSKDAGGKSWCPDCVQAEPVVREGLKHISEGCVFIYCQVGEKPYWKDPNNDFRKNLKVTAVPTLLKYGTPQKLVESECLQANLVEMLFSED
Description: as §1, §2, §3

ACAT1 C196 = target: T4, ACAT1 C196 (Homo sapiens, UniProt P24752)
T4 construct: IsoTOP-ABPP analysis of DKM 2-90 treatment in 231MFP cells in situ; endogenous in cells; host or cells: 231MFP cells
T4 sequence (P24752 34-427): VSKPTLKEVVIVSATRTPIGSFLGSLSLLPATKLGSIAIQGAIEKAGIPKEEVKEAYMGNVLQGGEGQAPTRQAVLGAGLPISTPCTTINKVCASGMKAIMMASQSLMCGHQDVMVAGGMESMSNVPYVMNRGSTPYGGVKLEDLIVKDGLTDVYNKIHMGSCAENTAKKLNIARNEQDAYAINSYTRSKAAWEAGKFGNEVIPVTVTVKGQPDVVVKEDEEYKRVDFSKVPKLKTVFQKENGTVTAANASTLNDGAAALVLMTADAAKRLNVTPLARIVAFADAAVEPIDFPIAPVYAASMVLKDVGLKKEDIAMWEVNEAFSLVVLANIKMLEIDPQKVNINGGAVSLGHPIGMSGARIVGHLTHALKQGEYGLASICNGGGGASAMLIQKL
Description: as §1, §2, §3

O=C(CCl)Nc1ccc2c(c1)OCCO2 [DKM 2-90, 2-Chloro-N-(2,3-dihydrobenzo[β][1,4]dioxin-6-yl)acetamide]
> 5: isotopically light to heavy ratio, SCP2 C307 (SCP2 C307) | isotopically light to heavy ratio, CLIC4 C35 (CLIC4 C35) | isotopically light to heavy ratio, TXNDC17 C43 (TXNDC17 C43) | isotopically light to heavy ratio, ACAT1 C196 (ACAT1 C196)

Source: patent US20200054651A1, “COMPOSITIONS AND METHODS FOR MODULATING PPP2R1A” (The Regents of the University of California, priority 2017, published 2020)
